According to patent US8575106B2, “Cosmetic uses of modified stressed yeast extracts and related compositions” (Avon Products, Inc., priority 2009, dated 2013):

Key:
[1] = tested on: B16 mouse melanoma cell lines; experiment: Melanin synthesis in B16 cells, normalized to cell viability (MTT); format: cell-based; details: 100 μM 2-APB, 7 days, relative to control
Experimental: Next, the effects of 2-APB and modified peptide fractions having a zinc-complexed peptide comprising SEQ ID NO:1 on melanin synthesis were examined in B16 cells. B16 mouse melanoma cell lines (ATCC, cat. #: CRL-6475) were grown in 96-well tissue culture treated dishes (Falcon) and treated with a test compound to determine its ability to modulate pigment formation (melanin synthesis). Specifically, cells were exposed to 100 μM 2-APB or modified yeast peptide fractions comprising different concentrations of zinc-complexed peptide comprising SEQ ID NO:1, including 1% and 0.1% zinc-complexed peptide, for seven (7) days. Following the treatment period, the level of melanin synthesized was quantified using a Packard micro-plate reader at 540 nm.
After quantifying the amount of melanin synthesized, cell viability was determined using the MTT conversion method. […] After melanin synthesis quantification, the cultures were exposed to MTT dye solution with a concentration of 1 mg/ml for three hours. […] MTT dye uptake and conversion by viable cells was determined by measuring the extracted formazan at 570 nm using a Packard micro-plate reader.
After normalizing to cell viability, total pigmentation then was calculated, and expressed as a percent activity of control. […]

[2] = tested on: B16 melanoma cells; experiment: Calcium influx into B16 melanoma cells (Fluo-4 NW Calcium Assay, Thapsigargin-stimulated); format: cell-based, mouse; details: 100 μM 2-APB, area under curve of calcium influx peak vs vehicle control
Experimental: Modified yeast peptide fractions comprising a zinc-complexed peptide comprising SEQ ID NO:1 were tested in vitro for the ability to inhibit calcium influx into pigment-producing cells. An experiment was designed to measure intracellular calcium in B16 melanoma cells using Fluo-4 NW Calcium Assay Kits (Invitrogen) as per manufacturer's instructions. B16 mouse melanoma cell lines (ATCC, cat. #: CRL-6475) were grown in 96-well tissue culture treated dishes in growth medium. Prior to calcium treatment, growth medium from the B16 cell cultures was removed and 100 μL of the dye loading solution was added quickly to each well of a 96-well plate. Plates were incubated at 37° C. for 30 minutes, then at room temperature for an additional 30 minutes. Dye buffer was removed and plates were washed once with 1×PBS and replaced with an assay buffer that contains calcium (and was formed according to the manufacturer's directions) along with a test compound. […]
Fluorescence was measured using a micro-plate reader at excitation/emission wavelengths of 485 nm/530 nm, respectively. The reader was set to read florescence every 30 seconds for a period of 5 minutes. […] The fluorescence micro-plate reader was set to take fluorescence measurements every 30 seconds for a period of 30 minutes, again at excitation/emission wavelengths of 485 nm/530 nm, respectively. […]

Question: For NCCOB(c1ccccc1)c1ccccc1 [2-APB, 2-aminoethyl diphenylborate], which “inhibition of melanin synthesis” value [1] is on record?
Answer: 77%

Question: And the “inhibition of calcium entry into the cells” value [2]?
Answer: 86%
